This test addresses hSTING (Homo sapiens, UniProt Q86WV6). Description: STING reporter assay (luciferase) in THP1-Dual KO-IFNAR2 cells activated with 2'3' cGAMP. The class given is cell-based. Particulars: 15 μM 2'3' cGAMP, 24 h. The method, then: STING pathway activation by the compounds described herein was measured using THP1-Dual™ cells (KO-IFNAR2).
THP1-Dual™ KO-IFNAR2 Cells (obtained from invivogen) were maintained in RPMI, 10% FCS, 5 ml P/S, 2 mM L-glut, 10 mM Hepes, and 1 mM sodium pyruvate. Compounds were spotted in empty 384 well tissue culture plates (Greiner 781182) by Echo for a final concentration of 0.0017-100 μM. Cells were plated into the TC plates at 40 μL per well, 2×10E6 cells/mL. For activation with STING ligand, 2′3′ cGAMP (MW 718.38, obtained from Invivogen), was prepared in Optimem media.
The following solutions were prepared for each 1×384 plate: • Solution A: 2 mL Optimem with one of the following stimuli: • 60 uL of 10 mM 2′3′ cGAMP ->150 μM stock • Solution B: 2 mL Optimem with 60 μL Lipofectamine 2000->Incubate 5 min at RT
2 mL of solution A and 2 ml Solution B was mixed and incubated for 20 min at room temperature (RT). 20 uL of transfection solution (A+B) was added on top of the plated cells, with a final 2′3′ cGAMP concentration of 15 μM. The plates were then centrifuged immediately at 340 g for 1 minute, after which they were incubated at 37° C., 5% CO2, >98% humidity for 24 h. Luciferase reporter activity was then measured. EC50 values were calculated by using standard methods known in the art.
Luciferase reporter assay: 10 μL of supernatant from the assay was transferred to white 384-plate with flat bottom and squared wells. one pouch of QUANTI-Luc™ Plus was dissolved in 25 mL of water. 100 μL of QLC Stabilizer per 25 mL of QUANTI-Luc™ Plus solution was added. 50 μL of QUANTI-Luc™ Plus/QLC solution per well was then added. Luminescence was measured on a Platereader (e.g., Spectramax I3X (Molecular Devices GF3637001)).
Luciferase reporter activity was then measured. EC50 values were calculated by using standard methods known in the art.
Luciferase reporter assay: 10 μL of supernatant from the assay was transferred to white 384-plate with flat bottom and squared wells, one pouch of QUANTI-Luc™ Plus was dissolved in 25 mL of water. 100 μL of QLC Stabilizer per 25 mL of QUANTI-Luc™ Plus solution was added. 50 μL of QUANTI-Luc™ Plus/QLC solution per well was then added. Luminescence is measured on a Platereader (e.g., Spectramax I3X (Molecular Devices GF3637001)).
(In general: Reporter assays use an easily measured gene product as a stand-in for the process of interest.)

Sequence of hSTING (Q86WV6 whole entry R71H/G230A/H232R/R293Q, form open): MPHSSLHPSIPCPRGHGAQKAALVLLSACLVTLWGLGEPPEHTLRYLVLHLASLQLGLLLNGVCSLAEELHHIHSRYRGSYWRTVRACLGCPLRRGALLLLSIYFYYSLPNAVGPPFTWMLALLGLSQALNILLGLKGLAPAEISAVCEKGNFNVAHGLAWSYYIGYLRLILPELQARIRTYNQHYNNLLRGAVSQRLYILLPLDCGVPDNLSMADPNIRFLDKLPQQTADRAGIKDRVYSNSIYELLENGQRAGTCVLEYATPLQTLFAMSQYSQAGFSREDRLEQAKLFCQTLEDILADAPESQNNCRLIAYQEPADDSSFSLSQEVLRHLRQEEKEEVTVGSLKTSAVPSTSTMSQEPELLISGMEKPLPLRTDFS

The EC50 is the midpoint of the concentration-response curve. As to `O=C(Nc1ccc(C(F)(F)F)cc1)Nc1c[nH]c2ccc(-c3ccccc3)cc12` [Compound 101, 1-(5-phenyl-1H-indol-3-yl)-3-(4-(trifluoromethyl)phenyl)urea], the EC50 fell in the range of 200 to 1000 nM.
`CC(C)n1cc(-c2ccc3[nH]cc(NC(=O)Nc4ccc(C(F)(F)F)cc4)c3c2)cn1` [Compound 104, 1-(5-(1-isopropyl-1H-pyrazol-4-yl)-1H-indol-3-yl)-3-(4-(trifluoromethyl)phenyl)urea]: the EC50 fell in the range of 40 to 200 nM.
On to `O=C(Nc1ccc(C(F)(F)F)cc1)Nc1c[nH]c2ccc(-c3ccc(CO)c(F)c3)cc12` [Compound 127, 1-(5-(3-fluoro-4-(hydroxymethyl)phenyl)-1H-indol-3-yl)-3-(4-(trifluoromethyl)phenyl)urea], for which the 50% effective concentration (EC50) fell in the range of 200 to 1000 nM.
The same measure for `CCCCCCc1ccc(-c2ccc3[nH]cc(NC(=O)Nc4ccc(C(F)(F)F)cc4)c3c2)cc1` [Compound 211, 1-(5-(4-hexylphenyl)-1H-indol-3-yl)-3-(4-(trifluoromethyl)phenyl)urea]: 200 to 1000 nM; for `O=C(Nc1ccc(C(F)(F)F)cc1)Nc1c[nH]c2cc(F)c(-c3cnn(C(F)F)c3)cc12` [Compound 212, 1-(5-(1-(difluoromethyl)-1H-pyrazol-4-yl)-6-fluoro-1H-indol-3-yl)-3-(4-(trifluoromethyl)phenyl)urea]: 40 to 200 nM.
Take `CC(C)n1cc(-c2cc3c(NC(=O)Nc4ccc(C(F)(F)F)cc4)c[nH]c3cc2F)cn1` [Compound 213]: the EC50 lay in the range of 200 to 1000 nM.
For the molecule `Cn1ccc(-c2ccc3[nH]cc(NC(=O)Nc4ccc(C(F)(F)F)cc4)c3c2)n1` [Compound 214, 1-(5-(1-methyl-1H-pyrazol-3-yl)-1H-indol-3-yl)-3-(4-(trifluoromethyl)phenyl)urea], the half-maximal effective concentration (EC50) is 1000 to 5000 nM.
Take `CN(C)C(=O)c1ccc(-c2ccc3[nH]cc(NC(=O)Nc4ccc(C(F)(F)F)cc4)c3c2)c(F)c1` [Compound 215]: the EC50 is 200 to 1000 nM.
Molecule `N#Cc1csc(-c2ccc3[nH]cc(NC(=O)Nc4ccc(C(F)(F)F)cc4)c3c2)c1` [Compound 216] returned an EC50 of 40 to 200 nM.
The same measure for `CC(C)(C#N)c1ccc(-c2ccc3[nH]cc(NC(=O)Nc4ccc(C(F)(F)F)cc4)c3c2)cc1` [Compound 217]: 5000 to 100000 nM; for `O=C(Nc1ccc(C(F)(F)F)cc1)Nc1c[nH]c2ccc(-c3ccc(OC(F)F)cc3)cc12` [Compound 218]: 200 to 1000 nM; for `CN(C)C(=O)c1ccc(-c2ccc3[nH]cc(NC(=O)Nc4ccc(C(F)(F)F)cc4)c3c2)cc1` [Compound 219]: 200 to 1000 nM.
Under `O=C(Nc1ccc(C(F)(F)F)cc1)Nc1c[nH]c2ccc(-c3cccc(OC(F)(F)F)c3)cc12` [Compound 220] stands 200 to 1000 nM.
`O=C(Nc1ccc(C(F)(F)F)cc1)Nc1c[nH]c2ccc(-c3cccc4ncccc34)cc12` [Compound 221, 1-(5-(quinolin-5-yl)-1H-indol-3-yl)-3-(4-(trifluoromethyl)phenyl)urea] registered an EC50 of 200 to 1000 nM.
The molecule `O=C(Nc1ccc(C(F)(F)F)cc1)Nc1c[nH]c2ccc(-c3c(F)cccc3F)cc12` [Compound 222] displayed an EC50 of 1000 to 5000 nM.
As to `CC(C)c1ccc(-c2ccc3[nH]cc(NC(=O)Nc4ccc(C(F)(F)F)cc4)c3c2)cc1` [Compound 223, 1-(5-(4-isopropylphenyl)-1H-indol-3-yl)-3-(4-(trifluoromethyl)phenyl)urea], the EC50 was 200 to 1000 nM.
In turn, `O=C(Nc1ccc(C(F)(F)F)cc1)Nc1c[nH]c2ccc(-c3cccc4cccnc34)cc12` [Compound 224, 1-(5-(quinolin-8-yl)-1H-indol-3-yl)-3-(4-(trifluoromethyl)phenyl)urea] returned an EC50 of 1000 to 5000 nM.
For the molecule `COc1cccc(-c2ccc3[nH]cc(NC(=O)Nc4ccc(C(F)(F)F)cc4)c3c2)c1` [Compound 225], the EC50 lay in the range of 200 to 1000 nM.
The molecule `O=C(Nc1ccc(C(F)(F)F)cc1)Nc1c[nH]c2ccc(-c3cccc(Cl)c3)cc12` [Compound 226] gave an EC50 of 200 to 1000 nM.
As to `O=C(Nc1ccc(C(F)(F)F)cc1)Nc1c[nH]c2ccc(-c3cc(Cl)nc(Cl)c3)cc12` [Compound 227], the EC50 fell in the range of 200 to 1000 nM.
On to `COCc1cncc(-c2ccc3[nH]cc(NC(=O)Nc4ccc(C(F)(F)F)cc4)c3c2)c1` [Compound 228], for which the EC50 was in the range of 200 to 1000 nM.
With `O=C(Nc1ccc(C(F)(F)F)cc1)Nc1c[nH]c2ccc(-c3cncc(Cl)c3)cc12` [Compound 229], the EC50 was 200 to 1000 nM.
Regarding `O=C(Nc1ccc(C(F)(F)F)cc1)Nc1c[nH]c2ccc(-c3cccnc3)cc12` [Compound 230], the EC50 fell in the range of 200 to 1000 nM.
The same measure for `CC(=O)c1ccc(-c2ccc3[nH]cc(NC(=O)Nc4ccc(C(F)(F)F)cc4)c3c2)s1` [Compound 231]: 200 to 1000 nM; for `N#CCCn1cc(-c2ccc3[nH]cc(NC(=O)Nc4ccc(C(F)(F)F)cc4)c3c2)cn1` [Compound 232]: 200 to 1000 nM; for `O=C(Nc1ccc(C(F)(F)F)cc1)Nc1c[nH]c2ccc(-c3cnn(-c4ccccc4)c3)cc12` [Compound 234]: 40 to 200 nM.
Take `O=C(Nc1ccc(C(F)(F)F)cc1)Nc1c[nH]c2ccc(-c3cnn(CC4CC4)c3)cc12` [Compound 235]: the EC50 is 40 to 200 nM.
With `COCCn1cc(-c2ccc3[nH]cc(NC(=O)Nc4ccc(C(F)(F)F)cc4)c3c2)cn1` [Compound 236], the EC50 fell in the range of 200 to 1000 nM.
Consider `CCn1cc(-c2ccc3[nH]cc(NC(=O)Nc4ccc(C(F)(F)F)cc4)c3c2)cn1` [Compound 237], for which the EC50 fell in the range of 40 to 200 nM.
For the molecule `CCCc1ccc(-c2ccc3[nH]cc(NC(=O)Nc4ccc(C(F)(F)F)cc4)c3c2)cc1` [Compound 238], the EC50 fell in the range of 1000 to 5000 nM.
Consider `O=C(Nc1ccc(C(F)(F)F)cc1)Nc1c[nH]c2ccc(-c3ccc(Cl)c(Cl)c3)cc12` [Compound 239], for which the EC50 fell in the range of 1000 to 5000 nM.
Take `O=C(Nc1ccc(C(F)(F)F)cc1)Nc1c[nH]c2ccc(-c3cc(F)cc(F)c3)cc12` [Compound 240]: the EC50 was in the range of 200 to 1000 nM.
`O=C(Nc1ccc(C(F)(F)F)cc1)Nc1c[nH]c2ccc(-c3ccc(F)c(F)c3)cc12` [Compound 241] registered an EC50 of 1000 to 5000 nM.
`O=C(Nc1ccc(C(F)(F)F)cc1)Nc1c[nH]c2ccc(-c3ccc(F)cc3F)cc12` [Compound 242] showed an EC50 of 1000 to 5000 nM.
Take `CC(C)n1cc(-c2ccc3[nH]cc(NC(=O)Nc4ccc(C5CCCCC5)nc4)c3c2)cn1` [Compound 243]: the EC50 is 200 to 1000 nM.
Regarding `Nc1cc(-c2ccc3[nH]cc(NC(=O)Nc4ccc(C(F)(F)F)cc4)c3c2)ccn1` [Compound 274, 1-(5-(2-aminopyridin-4-yl)-1H-indol-3-yl)-3-(4-(trifluoromethyl)phenyl)urea], the EC50 lay in the range of 1000 to 5000 nM.
The molecule `O=C(Nc1ccc(C(F)(F)F)cc1)Nc1c[nH]c2ccc(-c3ccc(CO)cc3)cc12` [Compound 282, 1-(5-(4-(hydroxymethyl)phenyl)-1H-indol-3-yl)-3-(4-(trifluoromethyl)phenyl)urea] registered an EC50 of 1000 to 5000 nM.
The molecule `CC(C)(C)Oc1ccc(-c2ccc3[nH]cc(NC(=O)Nc4ccc(C(F)(F)F)cc4)c3c2)cc1` [Compound 288, 1-(5-(4-(tert-butoxy)phenyl)-1H-indol-3-yl)-3-(4-(trifluoromethyl)phenyl)urea] showed an EC50 of 200 to 1000 nM.
In turn, `CC(C)(O)Cn1cc(-c2ccc3[nH]cc(NC(=O)Nc4ccc(C(F)(F)F)cc4)c3c2)cn1` [Compound 297, 1-(5-(1-(2-hydroxy-2-methylpropyl)-1H-pyrazol-4-yl)-1H-indol-3-yl)-3-(4-(trifluoromethyl)phenyl)urea] showed an EC50 of 200 to 1000 nM.

The values above are taken from patent US20230002320A1, “COMPOUNDS AND COMPOSITIONS FOR TREATING CONDITIONS ASSOCIATED WITH STING ACTIVITY” (IFM Due, Inc., priority 2019, published 2023).
